Results on one compound are retold here after patent publication US11213509B2, “Compositions and methods for treating traumatic brain injury” (Ischemix, LLC, priority 2017, dated 2022).

For data set [1], the system named is fluid percussion model of diffused traumatic brain injury (TBI) in rats. In words: Limb placing test, fluid percussion model of diffused TBI. Format: in vivo, rat. The conditions noted are these: vs vehicle, p<0.001, starting 1 day following TBI. The procedure: On the day before TBI surgery (Day −1), rats were anesthetized with 3% isoflurane in a mixture of nitrous oxide and oxygen (2:1) for induction of anesthesia and then maintained at 1-3% isoflurane in a mixture of nitrous oxide and oxygen (2:1). The surgical site skin was shaved, and the rat was then placed in a stereotaxic frame. Buprenorphine SR, s.c, (0.9-1.2 mg/kg Zoopharm: Lot: BSR1-142111) and Cefazolin, i.p., (40-50 mg/kg; Hospira: Lot: 101D032) was given at this time. The skull was exposed through a midline incision. A parasagittal craniotomy (5 mm) using a trephine drill was performed at 1 mm posterior to bregma and 1 mm lateral to the midline (outer circumference). A sterile plastic injury tube (the plastic connector hub of a sterile needle cut 1 cm in length and trimmed to fill the craniotomy securely) was placed over the exposed dura and bonded by super glue to the skull. Dental cement was then poured around the injury tube to obtain a complete seal. After the dental cement had hardened, the injury tube was filled with sterile saline and the skin was closed by surgical clips. The animals were then returned to a clean home cage after recovery from the anesthesia.
(§1) On the day of TBI surgery (Day 0), rats were re-anesthetized with 3% isoflurane in a mixture of nitrous oxide and oxygen (2:1), intubated, connected to a respirator and ventilated with 1-2% isoflurane in a mixture of nitrous oxide and oxygen (2:1). […] The amplitude of the resulting pressure pulse was measured in atmospheres by a pressure transducer. […]
(§2) Dosing solutions were prepared in a blinded fashion with H, I, M, O and Z labels ready to use. […]
Limb placing tests were divided into both forelimb and hindlimb tests. For the forelimb-placing test, the examiner held the rat close to a tabletop and scored the rat's ability to place the forelimb on the tabletop in response to whisker, visual, tactile, or proprioceptive stimulation. For the hindlimb placing test, the examiner assessed the rat's ability to place the hindlimb on the tabletop in response to tactile and proprioceptive stimulation. […]

Data set [2] can be described thus: Body weight change, fluid percussion model of diffused TBI. The class given is in vivo, rat. The conditions noted are these: 7.5, 15, 30, 45 mg/kg i.v. vs vehicle; 28 days. The protocol:
On the day before TBI surgery (Day −1), rats were anesthetized with 3% isoflurane in a mixture of nitrous oxide and oxygen (2:1) for induction of anesthesia and then maintained at 1-3% isoflurane in a mixture of nitrous oxide and oxygen (2:1). The surgical site skin was shaved, and the rat was then placed in a stereotaxic frame. Buprenorphine SR, s.c, (0.9-1.2 mg/kg Zoopharm: Lot: BSR1-142111) and Cefazolin, i.p., (40-50 mg/kg; Hospira: Lot: 101D032) was given at this time. The skull was exposed through a midline incision. A parasagittal craniotomy (5 mm) using a trephine drill was performed at 1 mm posterior to bregma and 1 mm lateral to the midline (outer circumference). […]
as §1, §2
All data were expressed as mean S.E.M. Behavioral data and weight were analyzed by repeated measures of ANOVA and/or ANCOVA. […]

In data set [3] the test system is mitochondrial bioenergetics. Kind of data set: Mitochondrial respiration (respiratory control ratio) 24 hours post-CCI, focal TBI model in piglets. Format: in vivo. The protocol: (§3) Study Design: A blinded, placebo controlled proof of concept trial of CMX-2043 was conducted in four-week-old piglets (8-10 kg). […] Sixteen piglets (n=16) were designated into three cohorts: 1) Controlled cortical impact (CCI) at the rostral gyrus treated with a bolus of CMX-2043 (n=5), 2) CCI injured animals treated with placebo (n=5) and 3) sham animals (n=6). CMX-2043 treated animals received an intravenous loading bolus of CMX-2043 (13.4 mg/kg) 1 hour post-TBI and a 4.5 mg/kg bolus at 13 hours post-TBI. Subjects were intubated, ventilated and anesthesia maintained on isoflurane (1.0%). Buprenorphine (0.02 mg/kg IM) was administered for analgesia immediately following intubation. Monitors recorded oxygen saturation, heart rate, respiration rate, rectal temperature, and end tidal CO2. […] All piglets were sacrificed between 24-25 hours post-TBI.
Mitochondrial Respiration and ROS Production: Twenty four hours post-CCI the ipsilateral penumbra and mirrored contralateral cortex were harvested. The rate of oxygen consumption was recorded via high-resolution Oroboros Oxygraph-2k™ with a specific Substrate-Uncouple-Inhibitor-Titration Protocol (SUIT). […] Maximal reserve capacity of the electron transfer system (ETSCI+CII) was measured by titrating the protonophore carbonyl cyanide p-(trifluoro-methoxy) phenylhydrazone (FCCP). […]

Data set [4] deals with lipid peroxidation (4-HNE). In words: Lipid peroxidation by 4-hydroxynonenal (4-HNE) Western blot, focal TBI model in piglets. Format: in vivo. The conditions noted are these: cortical penumbra, ipsilateral; vs placebo, p<0.001. The protocol:
as §3
Samples from the same ipsilateral injured region analyzed for mtROS were analyzed for oxidative damage by measuring 4-HNE as an assessment of lipid peroxidation by Western Blot analysis (EMD Millipore), normalized by GAPDH (EMD Millipore), and compared to placebo and shams.
A general note: A western blot detects proteins with antibodies after separation by electrophoresis.

In the case of `CC(NC(=O)C(CCC(=O)O)NC(=O)CCCCC1CCSS1)C(=O)O` [CMX-2043, N—(R)-lipoyl-glutamylalanine], the “Limb placing test recovery” value in data set [1] (15 mg/kg i.v. at 30 minutes and 24 hours after TBI) is “superior recovery compared to vehicle-treated animals”; in data set [1] (30 mg/kg i.v. at 30 minutes and 24 hours after TBI), “superior recovery compared to vehicle-treated animals”; in data set [1] (45 mg/kg i.v. at 30 minutes and 24 hours after TBI) it was “superior recovery compared to vehicle-treated animals”. Moreover, the “Body weight over time” value in data set [2] was “no significant differences”. The “Respiratory control ratio (RCR; OXPHOS CI+CII/LEAK CI+CII)” value in data set [3] (contralateral cortex, P=0.09 vs placebo) is reported as 11.05±1.71; in data set [3] (ipsilateral cortex, i.v. 13.4 mg/kg at 1 hour and 4.5 mg/kg at 13 hours post-TBI, p<0.05 vs placebo) it was 11.61±2.28. Further, the “Lipid peroxidation (4-HNE)” value in data set [4] is on record as “significant reduction in lipid peroxidation”.
